Where “and” joins values, the source holds several entries; their conditions need not be identical. Identical values can stand only once. Entries after “also recorded” stand apart in the source; their conditions may differ. Like-named read-outs stand apart in the source and are kept apart here. Marks after values point to notes of the source that are not given here.
Key:
[1] = test system: bovine oocytes; assay: Membrane projections of bovine oocytes after colcemid treatment; format: cell-based; conditions: for oocytes exhibiting an obvious membrane projection: colcemid treatment for 2 to 4 hr
[2] = test system: NT embryos transferred to recipient cows; assay: Pregnancy rates after transfer of NT embryos to recipient cows; format: in vivo, bovine
Excerpt: FIG. 1 is a diagram showing pregnancy rates throughout gestation following transfer of NT embryos derived from colcemid-treated versus untreated heifer cytoplasts. […] Six to seven days after NT, morulae and blastocysts were transferred to recipient cows. The solid bars show pregnancy rates for nuclear transfer embryos generated from heifer oocytes which were not treated with colcemid.
The day 6-7 morulae and blastocysts were selected and transferred to recipient cows. A total of 191 recipient cows were used for embryo transfer. Forty cows received embryos from colcemid-treated oocytes and 151 cows received embryos from non-treated oocytes. Pregnancy rates were monitored throughout gestation.

[3] = test system: bovine NT blastocysts; assay: Chromosomal analysis and cell number count of Day 7 NT blastocysts; format: cell-based; conditions: for No. cells blastocysts (mean ± SD): oocytes matured 16-17 hours, 0.2 μg/ml for 2-3 hours; for Cell number of blastocysts (mean ± SD): 0.2 μg/ml for 2-3 hr
Description: Day 7 blastocysts were prepared and examined for their cytogenetic composition and the number of nuclei contained was verified. […] Chromosomes were examined at 1000× under a Zeiss microscope, and the chromosome composition was determined for each blastocyst.

[4] = test system: bovine NT embryos
[5] = test system: bovine oocytes; conditions: colcemid vs control, 15-22 hr maturation
Description: Oocytes were vortexed in 1 ml PB1+ containing 10 mg/ml hyaluronidase for 4 minutes to completely remove cumulus cells. Oocytes of good quality were selected for use. Oocytes were loaded with Ca^2+ indicator by incubation in 2 μM Fura-2 AM ester (Molecular Probes, Eugene, Oreg.) and 0.02% Pluronic F-127 (Molecular Probes) in Ca^2+- and Mg^2+-free phosphate buffered saline (Hyclone Laboratories) containing 0.32 mM sodium pyruvate, 5.55 mM glucose, 3 mg/ml BSA, and 100 μM EGTA at 39° C. in darkness for 45 min. After loading with indicator, oocytes were washed extensively with PB1+ (phosphate-buffered saline with Ca^2+ and Mg^2+ plus 5.55 mM glucose, 0.32 mM sodium pyruvate, 3 mg/ml BSA) and maintained in this solution at 39° C. until use.
Fura-2 loaded oocytes were transferred to a 50-μl drop of PB1+ medium covered with mineral oil.

In the case of `CN[C@H]1CCc2cc(OC)c(OC)c(OC)c2-c2ccc(OC)c(=O)cc21` [colcemid, N-deacetyl-N-methylcolchicine], the “No. oocytes with blebs or Pb1 + bleb (%)” value ([1]; oocytes with PB1 matured 16-17 hr, 0.2 μg/ml for 2 h, 26 of 36 oocytes) is reported as 26 (72.2) %, the “No. oocytes with blebs or Pb1 + bleb (%)” value ([1]; oocytes with PB1 matured 16-17 hr, 0.2 μg/ml for 4 h, 31 of 39 oocytes) is reported as 31 (79.5) % and the “No. oocytes with blebs or Pb1 + bleb (%)” value ([1]; oocytes with PB1 matured 16-17 hr, 0.4 μg/ml for 2 h, 29 of 38 oocytes) is reported as 29 (76.3) %. The “No. oocytes with blebs or Pb1 + bleb (%)” value ([1]; oocytes with PB1 matured 16-17 hr, 0.4 μg/ml for 4 h, 28 of 38 oocytes) was 28 (73.6) %, the “oocytes exhibiting an obvious membrane projection” value ([1]; oocytes with PB1 matured 16-17 hr) was “approximately 80%” and the “No. oocytes with blebs or Pb1 + bleb (%)” value ([1]; oocytes without PB1 matured 16-17 hr, 0.1 μg/ml for 1 h, 32 of 46 oocytes) was 32 (69.6) %. The “No. oocytes with blebs or Pb1 + bleb (%)” value ([1]; oocytes without PB1 matured 16-17 hr, 0.1 μg/ml for 2 h, 39 of 48 oocytes) was 39 (81.2) %, the “No. oocytes with blebs or Pb1 + bleb (%)” value ([1]; oocytes without PB1 matured 16-17 hr, 0.1 μg/ml for 4 h, 43 of 46 oocytes) was 43 (93.4) % and the “No. oocytes with blebs or Pb1 + bleb (%)” value ([1]; oocytes without PB1 matured 16-17 hr, 0.2 μg/ml for 2 h, 33 of 42 oocytes) was 33 (78.6) %. For the same compound, the “No. oocytes with blebs or Pb1 + bleb (%)” value ([1]; oocytes without PB1 matured 16-17 hr, 0.2 μg/ml for 4 h, 38 of 42 oocytes) was 38 (90.5) %, the “No. oocytes with blebs or Pb1 + bleb (%)” value ([1]; oocytes without PB1 matured 16-17 hr, 0.4 μg/ml for 2 h, 35 of 43 oocytes) was 35 (81.3) % and the “No. oocytes with blebs or Pb1 + bleb (%)” value ([1]; oocytes without PB1 matured 16-17 hr, 0.4 μg/ml for 4 h, 34 of 41 oocytes) was 34 (82.9) %. The “oocytes exhibiting an obvious membrane projection” value ([1]; oocytes without PB1 matured 16-17 hr) was 80-93%, the term rate ([2]; MI heifer oocytes matured 16-17 hr, 0.2 or 0.4 μg/ml colcemid 2-3 hr, 40 recipient cows, non-treated group 3.3%) was 12.5% and the “pregnancy rates vs non-treated group” value ([2]; at 60, 90, 180 days, P<0.05) was “Higher”. For the same compound, the “Cell numbers of blastocysts vs control groups” value ([3]; colcemid-treated groups vs control groups) was “numerically higher; also recorded: numerical higher”, the “No. cells blastocysts (mean ± SD)” value ([3]; culture system BCR) was 50.3 ± 7.6^c and the “No. cells blastocysts (mean ± SD)” value ([3]; culture system SCR and co-culture) was 107.8 ± 21.6^a. For the same compound, the “No. cells blastocysts (mean ± SD)” value ([3]; culture system SCR) was 70.5 ± 7.8^b, the “cell number of blastocysts vs untreated” value ([3]; embryos cultured in SCR and BCR systems) was “increased” and the “Cell number of blastocysts (mean ± SD)” value ([3]; oocytes matured 14-15 hr, without PB1) was 113 ± 10. For the same compound, the “Cell number of blastocysts (mean ± SD)” value ([3]; oocytes matured 16-17 hr, with PB1) was 103 ± 20, the “Cell number of blastocysts (mean ± SD)” value ([3]; oocytes matured 16-17 hr, without PB1) was 118 ± 17 and the “Cell number of blastocysts (mean ± SD)” value ([3]; oocytes matured 19-20 hr, with PB1) was 91 ± 9. For the same compound, the “Cell number of blastocysts (mean ± SD)” value ([3]; oocytes matured 19-20 hr, without PB1) was 107 ± 11, the “Blastocyst (%)” value ([4]; Table 3: oocytes matured 16-17 hr, 0.2 μg/ml for 2-3 h, 38 of 90 embryos cultured) was 38 (42.2)^a % and the “Morula (%)” value ([4]; Table 3: oocytes matured 16-17 hr, 0.2 μg/ml for 2-3 h, 44 of 90 embryos cultured) was 44 (48.9)^a %. The “2-cell (%)” value ([4]; Table 3: oocytes matured 16-17 hr, 0.2 μg/ml for 2-3 h, 76 of 90 embryos cultured) was 76 (84.4) %, the “cleavage of NT embryos” value ([4]; among treatment groups, vs controls, 0.2 μg/ml for 2-3 hr) was “no difference” and the “rate of hatched blastocysts vs untreated groups” value ([4]; colcemid groups vs untreated groups) was “much higher”. For the same compound, the “rate of morula and blastocyst development vs untreated groups” value ([4]; culture in SCR or BCR media) was “improved”, the “Blastocyst (%)” value ([4]; culture system BCR, oocytes matured 16-17 hours, 0.2 μg/ml for 2-3 hours, 20 of 110 cloned embryos, 5% CO2 in air) was 18.6% and 20 (18.2)^c % and the “Morula (%)” value ([4]; culture system BCR, oocytes matured 16-17 hours, 0.2 μg/ml for 2-3 hours, 27 of 110 cloned embryos) was 27 (24.5)^b %. The “2-cell (%)” value ([4]; culture system BCR, oocytes matured 16-17 hours, 0.2 μg/ml for 2-3 hours, 81 of 110 cloned embryos) was 81 (73.6) %, the “Hatched blastocyst (%)” value ([4]; culture system BCR, oocytes matured 16-17 hours, 0.2 μg/ml for 2-3 hours, 110 cloned embryos) was 0% and the “Hatched blastocyst (%)” value ([4]; culture system SCR and co-culture, oocytes matured 16-17 hours, 0.2 μg/ml for 2-3 hours, 19 of 86 cloned embryos) was 19 (22.0)^a %. The “Blastocyst (%)” value ([4]; culture system SCR and co-culture, oocytes matured 16-17 hours, 0.2 μg/ml for 2-3 hours, 34 of 86 cloned embryos) was 39.5% and 34 (39.5)^a %, the “Morula (%)” value ([4]; culture system SCR and co-culture, oocytes matured 16-17 hours, 0.2 μg/ml for 2-3 hours, 42 of 86 cloned embryos) was 42 (48.8)^a % and the “2-cell (%)” value ([4]; culture system SCR and co-culture, oocytes matured 16-17 hours, 0.2 μg/ml for 2-3 hours, 74 of 86 cloned embryos) was 74 (86.0) %. For the same compound, the “Hatched blastocyst (%)” value ([4]; culture system SCR, oocytes matured 16-17 hours, 0.2 μg/ml for 2-3 hours, 5 of 135 cloned embryos) was 5 (3.7)^b %, the “Blastocyst (%)” value ([4]; culture system SCR, oocytes matured 16-17 hours, 0.2 μg/ml for 2-3 hours, 31 of 135 cloned embryos) was 31 (23.0)^b % and the “Morula (%)” value ([4]; culture system SCR, oocytes matured 16-17 hours, 0.2 μg/ml for 2-3 hours, 41 of 135 cloned embryos) was 41 (30.3)^b %. For the same compound, the “2-cell (%)” value ([4]; culture system SCR, oocytes matured 16-17 hours, 0.2 μg/ml for 2-3 hours, 96 of 135 cloned embryos) was 96 (71.1) %, the “Hatching Blastocyst (%)” value ([4]; oocytes matured 14-15 hr, without PB1, 0.2 μg/ml for 2-3 hr, 26 of 100 embryos cultured) was 26 (26)^a % and the “Blastocyst (%)” value ([4]; oocytes matured 14-15 hr, without PB1, 0.2 μg/ml for 2-3 hr, 40 of 100 embryos cultured) was 40% and 40 (40)^a %. For the same compound, the “Morula (%)” value ([4]; oocytes matured 14-15 hr, without PB1, 0.2 μg/ml for 2-3 hr, 48 of 100 embryos cultured) was 48 (48) %, the “2-cell (%)” value ([4]; oocytes matured 14-15 hr, without PB1, 0.2 μg/ml for 2-3 hr, 85 of 100 embryos cultured) was 85 (85) % and the “Hatching Blastocyst (%)” value ([4]; oocytes matured 16-17 hr, with PB1, 0.2 μg/ml for 2-3 hr, 21 of 81 embryos cultured) was 21 (25.9)^a %. The “Blastocyst (%)” value ([4]; oocytes matured 16-17 hr, with PB1, 0.2 μg/ml for 2-3 hr, 36 of 81 embryos cultured) was 44.4% and 36 (44.4)^a %, the “Morula (%)” value ([4]; oocytes matured 16-17 hr, with PB1, 0.2 μg/ml for 2-3 hr, 45 of 81 embryos cultured) was 45 (55.6) % and the “2-cell (%)” value ([4]; oocytes matured 16-17 hr, with PB1, 0.2 μg/ml for 2-3 hr, 69 of 81 embryos cultured) was 69 (85.2) %. For the same compound, the “Hatching Blastocyst (%)” value ([4]; oocytes matured 16-17 hr, without PB1, 0.2 μg/ml for 2-3 hr, 22 of 90 embryos cultured) was 22 (24.2)^a %, the “Blastocyst (%)” value ([4]; oocytes matured 16-17 hr, without PB1, 0.2 μg/ml for 2-3 hr, 38 of 90 embryos cultured) was 42.2% and 38 (42.2)^a % and the “Morula (%)” value ([4]; oocytes matured 16-17 hr, without PB1, 0.2 μg/ml for 2-3 hr, 44 of 90 embryos cultured) was 44 (48.9) %. The “2-cell (%)” value ([4]; oocytes matured 16-17 hr, without PB1, 0.2 μg/ml for 2-3 hr, 76 of 90 embryos cultured) was 76 (84.4) %, the “Blastocyst (%)” value ([4]; oocytes matured 16-17 hr, 0.2 μg/ml for 5-6 h, 32 of 76 embryos cultured) was 32 (42.1)^a % and the “Morula (%)” value ([4]; oocytes matured 16-17 hr, 0.2 μg/ml for 5-6 h, 37 of 76 embryos cultured) was 37 (48.7)^a %. The “2-cell (%)” value ([4]; oocytes matured 16-17 hr, 0.2 μg/ml for 5-6 h, 69 of 76 embryos cultured) was 69 (90.8) %, the “Blastocyst (%)” value ([4]; oocytes matured 16-17 hr, 0.4 μg/ml for 2-3 h, 32 of 73 embryos cultured) was 32 (43.8)^a % and the “Morula (%)” value ([4]; oocytes matured 16-17 hr, 0.4 μg/ml for 2-3 h, 37 of 73 embryos cultured) was 37 (50.7)^a %. The “2-cell (%)” value ([4]; oocytes matured 16-17 hr, 0.4 μg/ml for 2-3 h, 66 of 73 embryos cultured) was 66 (90.4) %, the “Blastocyst (%)” value ([4]; oocytes matured 16-17 hr, 0.4 μg/ml for 5-6 h, 31 of 81 embryos cultured) was 31 (38.8)^a % and the “Morula (%)” value ([4]; oocytes matured 16-17 hr, 0.4 μg/ml for 5-6 h, 39 of 81 embryos cultured) was 39 (48.1)^a %. For the same compound, the “2-cell (%)” value ([4]; oocytes matured 16-17 hr, 0.4 μg/ml for 5-6 h, 66 of 81 embryos cultured) was 66 (81.5) %, the “Blastocyst (%)” value ([4]; oocytes matured 19-20 hr, with PB1, 0.2 μg/ml for 2-3 hr, 30 of 107 embryos cultured) was 30 (28.0)^b % and the “Morula (%)” value ([4]; oocytes matured 19-20 hr, with PB1, 0.2 μg/ml for 2-3 hr, 38 of 107 embryos cultured) was 38 (35.5) %. For the same compound, the “2-cell (%)” value ([4]; oocytes matured 19-20 hr, with PB1, 0.2 μg/ml for 2-3 hr, 88 of 107 embryos cultured) was 88 (82.2) %, the “Hatching Blastocyst (%)” value ([4]; oocytes matured 19-20 hr, with PB1, 0.2 μg/ml for 2-3 hr, printed count 6, 107 embryos cultured) was 6 (15.0)^b % and the “Hatching Blastocyst (%)” value ([4]; oocytes matured 19-20 hr, without PB1, 0.2 μg/ml for 2-3 hr, 14 of 66 embryos cultured) was 14 (21.2)^a %. The “Blastocyst (%)” value ([4]; oocytes matured 19-20 hr, without PB1, 0.2 μg/ml for 2-3 hr, 25 of 66 embryos cultured) was 38% and 25 (37.9)^a %, the “Morula (%)” value ([4]; oocytes matured 19-20 hr, without PB1, 0.2 μg/ml for 2-3 hr, 32 of 66 embryos cultured) was 32 (48.5) % and the “2-cell (%)” value ([4]; oocytes matured 19-20 hr, without PB1, 0.2 μg/ml for 2-3 hr, 56 of 66 embryos cultured) was 56 (84.8) %. For the same compound, the “average blastocyst development rate” value ([4]; under 5% CO2 in air, especially oocytes matured for 14 to 17 hr and treated with colcemid) was “over 40%” and the “intracellular calcium transients, trend between treatments” value [5] was “No trend”.

Source: patent US20080222745A1, “Colcemid-Treatment of Oocytes to enhance Nuclear Transfer Cloning” (Utah State University, priority 2007, published 2008)
